Test results taken from patent publication US11427548B2 (Arvinas Operations, Inc., priority 2015, dated 2022).
Read-outs that look alike come from different tables or passages of the source.

Molecular target: T1, Androgen Receptor (Homo sapiens, UniProt P10275)
T1 construct: endogenous in cells; host or cells: VCaP cells
T1 sequence (P10275 1-920): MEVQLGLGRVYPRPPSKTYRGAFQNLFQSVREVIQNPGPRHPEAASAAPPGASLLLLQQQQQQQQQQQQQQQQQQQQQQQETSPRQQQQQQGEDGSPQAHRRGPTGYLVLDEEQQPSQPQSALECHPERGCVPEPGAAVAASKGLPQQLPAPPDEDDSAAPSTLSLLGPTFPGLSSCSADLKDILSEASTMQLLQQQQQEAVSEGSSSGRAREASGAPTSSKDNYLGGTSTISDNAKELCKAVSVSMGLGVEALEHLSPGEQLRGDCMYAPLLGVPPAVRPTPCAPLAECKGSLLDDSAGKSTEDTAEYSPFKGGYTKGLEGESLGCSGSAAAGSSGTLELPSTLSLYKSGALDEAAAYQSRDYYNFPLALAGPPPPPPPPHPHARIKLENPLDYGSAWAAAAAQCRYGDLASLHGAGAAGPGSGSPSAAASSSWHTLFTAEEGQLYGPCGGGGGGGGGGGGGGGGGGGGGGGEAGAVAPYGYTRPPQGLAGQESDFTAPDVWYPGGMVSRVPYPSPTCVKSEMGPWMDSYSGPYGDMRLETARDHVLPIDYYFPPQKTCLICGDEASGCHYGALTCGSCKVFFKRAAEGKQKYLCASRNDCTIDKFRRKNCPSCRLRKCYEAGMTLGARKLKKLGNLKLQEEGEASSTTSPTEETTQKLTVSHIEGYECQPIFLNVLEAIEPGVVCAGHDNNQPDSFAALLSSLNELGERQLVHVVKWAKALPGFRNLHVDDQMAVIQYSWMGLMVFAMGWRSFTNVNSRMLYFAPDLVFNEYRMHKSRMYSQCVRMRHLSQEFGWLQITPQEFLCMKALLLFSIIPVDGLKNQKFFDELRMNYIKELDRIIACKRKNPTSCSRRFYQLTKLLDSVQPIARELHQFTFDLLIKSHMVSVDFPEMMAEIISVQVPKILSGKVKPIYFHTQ
Assay: Androgen Receptor ELISA assay (PathScan AR ELISA) in VCaP cells: AR degradation, Dmax and DC50
Assay type: cell-based
Settings: for Dmax: VCaP, read-out: VCaP Dmax (%); for DC50: concentration that caused 50% Androgen Receptor degradation, read-out: VCaP DC50
Procedure, shortened: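 VCaP cells in phenol red-free RPMI with 5% charcoal-stripped FBS were grown at least 3 days, then given compound as 7 half-log doses in 0.1% DMSO with 0.1 nM R1881 for 24 h. Lysates went into a sandwich AR ELISA with TMB read at 450 nm.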

[1] = highest percentage of Androgen Receptor degradation observed, VCaP cells (Table 32)
[2] = VCaP cells, highest percentage of Androgen Receptor degradation

Row | SMILES | Dmax [1] | DC50 (VCaP cells (Table 32)) | DC50 (VCaP cells) | Dmax [2]
1 | Cc1ncoc1-c1ccc(CNC(=O)[C@@H]2C[C@@H](O)CN2C(=O)[C@@H](NC(=O)COCc2ccc(Oc3ccc(C(=O)N[C@H]4C(C)(C)[C@H](Oc5ccc(C#N)c(Cl)c5)C4(C)C)cc3)cc2)C(C)(C)C)cc1 [Example 184, (2S,4R)-1-[(2S)-3,3-dimethyl-2-(2-{[4-(4-{[(1r,3r)-3-(3-chloro-4-cyanophenoxy)-2,2,4,4-tetramethylcyclobutyl]carbamoyl}phenoxy)phenyl]methoxy}acetamido)butanoyl]-4-hydroxy-N-{[4-(4-methyl-1,3-oxazol-5-yl)phenyl]methyl}pyrrolidine-2-carboxamide] | > 71% | < 50 nM | – | –
2 | Cc1ncsc1-c1ccc(CNC(=O)[C@@H]2C[C@@H](O)CN2C(=O)[C@@H](NC(=O)CNC(=O)c2ccc(Oc3ccc(C(=O)N[C@H]4C(C)(C)[C@H](Oc5ccc(C#N)c(Cl)c5)C4(C)C)cc3)cc2)C(C)(C)C)cc1 [Example 187, (2S,4R)-1-[(2S)-3,3-dimethyl-2-(2-{[4-(4-{[trans-3-(3-chloro-4-cyanophenoxy)-2,2,4,4-tetramethylcyclobutyl]carbamoyl}phenoxy)phenyl] formamido}acetamido)butanoyl]-4-hydroxy-N-{[4-(4-methyl-1,3-thiazol-5-yl)phenyl]methyl} pyrrolidine-2-carboxamide] | > 71% | < 50 nM | – | –
3 | CC(C)(C)[C@H](NC(=O)COCCCCOc1ccc(-c2ccc(N3C(=S)N(c4cnc(C#N)c(C(F)(F)F)c4)C(=O)C3(C)C)cc2)cc1)C(=O)N1C[C@H](O)C[C@H]1C(=O)NCc1ccc(-c2cnco2)cc1 [Example 190, (2S,4R)-1-[(2S)-2-(2-{4-[4-(4-{3-[6-cyano-5-(trifluoromethyl)pyridin-3-yl]-5,5-dimethyl-4-oxo-2-sulfanylideneimidazolidin-1-yl}phenyl)phenoxy]butoxy}acetamido)-3,3-dimethylbutanoyl]-4-hydroxy-N-{[4-(1,3-oxazol-5-yl)phenyl]methyl}pyrrolidine-2-carboxamide] | – | – | < 50 nM | > 71%
4 | CC(C)(C)[C@H](NC(=O)COCCCCOc1ccc(-c2ccc(N3C(=S)N(c4cnc(C#N)c(Cl)c4)C(=O)C3(C)C)cc2)cc1)C(=O)N1C[C@H](O)C[C@H]1C(=O)NCc1ccc(-c2cnco2)cc1 [Example 191, (2S,4R)-1-[(2S)-2-{2-[4-(4-{4-[3-(5-chloro-6-cyanopyridin-3-yl)-5,5-dimethyl-4-oxo-2-sulfanylideneimidazolidin-1-yl]phenyl}phenoxy)butoxy]acetamido}-3,3-dimethylbutanoyl]-4-hydroxy-N-{[4-(1,3-oxazol-5-yl)phenyl]methyl}pyrrolidine-2-carboxamide] | – | – | < 50 nM | 51 to 70%
5 | Cc1ncoc1-c1ccc(CNC(=O)[C@@H]2C[C@@H](O)CN2C(=O)[C@@H](NC(=O)COCCCCOc2ccc(-c3ccc(N4C(=S)N(c5cnc(C#N)c(C(F)(F)F)c5)C(=O)C4(C)C)cc3)cc2)C(C)(C)C)cc1 [Example 192, (2S,4R)-1-[(2S)-2-(2-{4-[4-(4-{3-[6-cyano-5-(trifluoromethyl)pyridin-3-yl]-5,5-dimethyl-4-oxo-2-sulfanylideneimidazolidin-1-yl}phenyl)phenoxy]butoxy}acetamido)-3,3-dimethylbutanoyl]-4-hydroxy-N-{[4-(4-methyl-1,3-oxazol-5-yl)phenyl]methyl}pyrrolidine-2-carboxamide] | – | – | < 50 nM | > 71%
6 | Cc1ncsc1-c1ccc(CNC(=O)[C@@H]2C[C@@H](O)CN2C(=O)[C@@H](NC(=O)COCCCCOc2ccc(-c3ccc(N4C(=S)N(c5cnc(C#N)c(C(F)(F)F)c5)C(=O)C4(C)C)cc3)cc2)C(C)(C)C)cc1 [Example 193, (2S,4R)-1-[(2S)-2-(2-{4-[4-(4-{3-[6-cyano-5-(trifluoromethyl)pyridin-3-yl]-5,5-dimethyl-4-oxo-2-sulfanylideneimidazolidin-1-yl}phenyl)phenoxy]butoxy}acetamido)-3,3-dimethylbutanoyl]-4-hydroxy-N-{[4-(4-methyl-1,3-thiazol-5-yl)phenyl]methyl}pyrrolidine-2-carboxamide] | – | – | < 50 nM | > 71%

More lines, main results first:

Row | Dmax [1] | DC50 (VCaP cells (Table 32)) | SMILES | DC50 (VCaP cells) | Dmax [2]
7 | > 71% | < 50 nM | Cc1ncoc1-c1ccc(CNC(=O)[C@@H]2C[C@@H](O)CN2C(=O)[C@@H](NC(=O)CCCOc2ccc(-c3ccc(C(=O)N[C@H]4C(C)(C)[C@H](Oc5ccc(C#N)c(Cl)c5)C4(C)C)cc3)cc2)C(C)(C)C)cc1 [Example 180] | – | –
8 | > 71% | < 50 nM | Cc1ncoc1-c1ccc(CNC(=O)[C@@H]2C[C@@H](O)CN2C(=O)[C@@H](NC(=O)COCCOc2ccc(-c3ccc(C(=O)N[C@H]4C(C)(C)[C@H](Oc5ccc(C#N)c(Cl)c5)C4(C)C)cc3)cc2)C(C)(C)C)cc1 [Example 181] | – | –
9 | > 71% | < 50 nM | Cc1ncsc1-c1ccc(CNC(=O)[C@@H]2C[C@@H](O)CN2C(=O)[C@@H](NC(=O)COCCOc2ccc(Oc3ccc(C(=O)N[C@H]4C(C)(C)[C@H](Oc5ccc(C#N)c(Cl)c5)C4(C)C)cc3)cc2)C(C)(C)C)cc1 [Example 185, (2S,4R)-1-[(2S)-3,3-dimethyl-2-(2-{2-[4-(4-{[trans-3-(3-chloro-4-cyanophenoxy)-2,2,4,4-tetramethylcyclobutyl]carbamoyl}phenoxy)phenoxy]ethoxy}acetamido)butanoyl]-4-hydroxy-N-{[4-(4-methyl-1,3-thiazol-5-yl)phenyl]methyl}pyrrolidine-2-carboxamide] | – | –
10 | > 71% | < 50 nM | Cc1ncoc1-c1ccc(CNC(=O)[C@@H]2C[C@@H](O)CN2C(=O)[C@@H](NC(=O)COCCOc2ccc(Oc3ccc(C(=O)N[C@H]4C(C)(C)[C@H](Oc5ccc(C#N)c(Cl)c5)C4(C)C)cc3)cc2)C(C)(C)C)cc1 [Example 186, (2S,4R)-1-[(2S)-3,3-dimethyl-2-(2-{2-[4-(4-{[trans-3-(3-chloro-4-cyanophenoxy)-2,2,4,4-tetramethylcyclobutyl]carbamoyl}phenoxy)phenoxy]ethoxy}acetamido)butanoyl]-4-hydroxy-N-{[4-(4-methyl-1,3-oxazol-5-yl)phenyl]methyl}pyrrolidine-2-carboxamide] | – | –
11 | > 71% | < 50 nM | Cc1ncsc1-c1ccc(CNC(=O)[C@@H]2C[C@@H](O)CN2C(=O)[C@@H](NC(=O)CNCCCCCOc2ccc(C(=O)N[C@H]3C(C)(C)[C@H](Oc4ccc(C#N)c(Cl)c4)C3(C)C)cc2)C(C)(C)C)cc1 [Example 188] | – | –
12 | 51 to 70% | < 50 nM | Cc1ncoc1-c1ccc(CNC(=O)[C@@H]2C[C@@H](O)CN2C(=O)[C@@H](NC(=O)CNCCCCCOc2ccc(C(=O)N[C@H]3C(C)(C)[C@H](Oc4ccc(C#N)c(Cl)c4)C3(C)C)cc2)C(C)(C)C)cc1 [Example 189, (2S,4R)-1-[(2S)-3,3-dimethyl-2-(2-{[5-(4-{[trans-3-(3-chloro-4-cyanophenoxy)-2,2,4,4-tetramethylcyclobutyl]carbamoyl}phenoxy)pentyl]amino}acetamido)butanoyl]-4-hydroxy-N-{[4-(4-methyl-1,3-oxazol-5-yl)phenyl]methyl)pyrrolidine-2-carboxamide] | – | –
